Km data for one compound are collected here from article PMC4405831, “Mast cell regulation of Na-glutamine co-transporters B0AT1 in villus and SN2 in crypt cells during chronic intestinal inflammation” (BMC Gastroenterology, 2015).

In this experiment the test system is T1, B0AT1.
T1 construct: gene SLC6A19; native full-length transporter in brush border membrane vesicles from ileal villus cells; not purified
As to the kind of experiment: 3H-glutamine uptake into villus BBMV, rapid filtration, […] s. The following applies: labelled compound; Na-dependent uptake (100 mM NaCl minus choline), pH 7.5, voltage clamped; normal (control) rabbits. In kind it is biochemical, Oryctolagus cuniculus.

For the compound `NC(=O)CC[C@H](N)C(=O)O` [glutamine], the Michaelis-Menten constant (Km) (usually the substrate concentration at which the rate is half of its maximum) was 24 ± 1.5 mM.
